{"source": "PubChem BioAssay AID2060512", "about": "(Molecular Pharmacology Branch, DTP, NCI, 2025);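 note: spheroids exposed to drugs for 7 days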;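 for viability, T/C: 100% = DMSO vehicle control viability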", "tested_on": "186277-243-T-J2-PDC complex spheroid viability", "assay": "Anticancer human tumor 186277-243-T-J2-PDC patient-derived colon adenocarcinoma cell line growth inhibition [GQUAD]", "conditions": "for IC50: curve of first compound; for viability, T/C: stronger effect = lower value", "method_in_brief": "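Tumor cells were grown as complex spheroids with HUVEC endothelial cells and mesenchymal stem cells as stroma. G-quadruplex stabilizers were combined with targeted agents over half-log dilutions from near the clinical Cmax, or from 10 microM.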", "key": {"[1]": {"conditions": "second compound 0.0316 µM, first compound 0.0316 µM"}, "[2]": {"conditions": "second compound 0.0316 µM, first compound 0.1 µM"}, "[3]": {"conditions": "second compound 0.0316 µM, first compound 0.316 µM"}, "[4]": {"conditions": "second compound 0.0316 µM, first compound 1 µM"}, "[5]": {"conditions": "second compound 0.0316 µM, first compound 3.16 µM"}, "[6]": {"conditions": "second compound 0.0316 µM, first compound 10 µM"}, "[7]": {"conditions": "second compound 0.1 µM, first compound 0.0316 µM"}, "[8]": {"conditions": "second compound 0.1 µM, first compound 0.1 µM"}, "[9]": {"conditions": "second compound 0.1 µM, first compound 0.316 µM"}, "[10]": {"conditions": "second compound 0.1 µM, first compound 1 µM"}, "[11]": {"conditions": "second compound 0.1 µM, first compound 3.16 µM"}, "[12]": {"conditions": "second compound 0.1 µM, first compound 10 µM"}, "[13]": {"conditions": "second compound 0.316 µM, first compound 0.0316 µM"}, "[14]": {"conditions": "second compound 0.316 µM, first compound 0.1 µM"}, "[15]": {"conditions": "second compound 0.316 µM, first compound 0.316 µM"}, "[16]": {"conditions": "second compound 0.316 µM, first compound 1 µM"}, "[17]": {"conditions": "second compound 0.316 µM, first compound 3.16 µM"}, "[18]": {"conditions": "second compound 0.316 µM, first compound 10 µM"}, "[19]": {"conditions": "second compound 1 µM, first compound 0.0316 µM"}, "[20]": {"conditions": "second compound 1 µM, first compound 0.1 µM"}, "[21]": {"conditions": "second compound 1 µM, first compound 0.316 µM"}, "[22]": {"conditions": "second compound 1 µM, first compound 1 µM"}, "[23]": {"conditions": "second compound 1 µM, first compound 3.16 µM"}, "[24]": {"conditions": "second compound 1 µM, first compound 10 µM"}, "[25]": {"conditions": "second compound 3.16 µM, first compound 0.0316 µM"}, "[26]": {"conditions": "second compound 3.16 µM, first compound 0.1 µM"}, "[27]": {"conditions": "second compound 3.16 µM, first compound 0.316 µM"}, "[28]": {"conditions": "second compound 3.16 µM, first compound 1 µM"}, "[29]": {"conditions": "second compound 3.16 µM, first compound 3.16 µM"}, "[30]": {"conditions": "second compound 3.16 µM, first compound 10 µM"}, "[31]": {"conditions": "second compound 10 µM, first compound 0.0316 µM"}, "[32]": {"conditions": "second compound 10 µM, first compound 0.1 µM"}, "[33]": {"conditions": "second compound 10 µM, first compound 0.316 µM"}, "[34]": {"conditions": "second compound 10 µM, first compound 1 µM"}, "[35]": {"conditions": "second compound 10 µM, first compound 3.16 µM"}, "[36]": {"conditions": "second compound 10 µM, first compound 10 µM"}}, "data": [{"smiles": "C=CCn1c(=O)c2cnc(Nc3ccc(N4CCN(C)CC4)cc3)nc2n1-c1cccc(C(C)(C)O)n1", "note": "+ Cc1[nH]c2ccc(F)cc2c1-c1nc2c3cccnc3c3ncccc3c2[nH]1", "values": [{"measurement": "IC50", "setting": "second compound 0.0316 µM", "result": 174, "unit": "nM"}, {"measurement": "IC50", "setting": "second compound 0.1 µM", "result": 180, "unit": "nM"}, {"measurement": "IC50", "setting": "second compound 0.316 µM", "result": 179, "unit": "nM"}, {"measurement": "IC50", "setting": "second compound 1 µM", "result": 179, "unit": "nM"}, {"measurement": "IC50", "setting": "second compound 3.16 µM", "result": 142, "unit": "nM"}, {"measurement": "IC50", "setting": "second compound 10 µM", "result": 138, "unit": "nM"}, {"measurement": "viability, T/C", "setting": "[1]", "result": 97.9, "unit": "%"}, {"measurement": "viability, T/C", "setting": "[2]", "result": 83.8, "unit": "%"}, {"measurement": "viability, T/C", "setting": "[3]", "result": 13.2, "unit": "%"}, {"measurement": "viability, T/C", "setting": "[4]", "result": 7.62, "unit": "%"}, {"measurement": "viability, T/C", "setting": "[5]", "result": 8.21, "unit": "%"}, {"measurement": "viability, T/C", "setting": "[6]", "result": 8.87, "unit": "%"}, {"measurement": "viability, T/C", "setting": "[7]", "result": 112, "unit": "%"}, {"measurement": "viability, T/C", "setting": "[8]", "result": 87.8, "unit": "%"}, {"measurement": "viability, T/C", "setting": "[9]", "result": 13.6, "unit": "%"}, {"measurement": "viability, T/C", "setting": "[10]", "result": 9.07, "unit": "%"}, {"measurement": "viability, T/C", "setting": "[11]", "result": 9.3, "unit": "%"}, {"measurement": "viability, T/C", "setting": "[12]", "result": 9.89, "unit": "%"}, {"measurement": "viability, T/C", "setting": "[13]", "result": 108, "unit": "%"}, {"measurement": "viability, T/C", "setting": "[14]", "result": 88, "unit": "%"}, {"measurement": "viability, T/C", "setting": "[15]", "result": 12.7, "unit": "%"}, {"measurement": "viability, T/C", "setting": "[16]", "result": 8.61, "unit": "%"}, {"measurement": "viability, T/C", "setting": "[17]", "result": 9.09, "unit": "%"}, {"measurement": "viability, T/C", "setting": "[18]", "result": 11.5, "unit": "%"}, {"measurement": "viability, T/C", "setting": "[19]", "result": 97.1, "unit": "%"}, {"measurement": "viability, T/C", "setting": "[20]", "result": 87.4, "unit": "%"}, {"measurement": "viability, T/C", "setting": "[21]", "result": 13.7, "unit": "%"}, {"measurement": "viability, T/C", "setting": "[22]", "result": 8.91, "unit": "%"}, {"measurement": "viability, T/C", "setting": "[23]", "result": 9.37, "unit": "%"}, {"measurement": "viability, T/C", "setting": "[24]", "result": 10.9, "unit": "%"}, {"measurement": "viability, T/C", "setting": "[25]", "result": 96.4, "unit": "%"}, {"measurement": "viability, T/C", "setting": "[26]", "result": 67.2, "unit": "%"}, {"measurement": "viability, T/C", "setting": "[27]", "result": 11.1, "unit": "%"}, {"measurement": "viability, T/C", "setting": "[28]", "result": 8.17, "unit": "%"}, {"measurement": "viability, T/C", "setting": "[29]", "result": 8.58, "unit": "%"}, {"measurement": "viability, T/C", "setting": "[30]", "result": 10.8, "unit": "%"}, {"measurement": "viability, T/C", "setting": "[31]", "result": 89.9, "unit": "%"}, {"measurement": "viability, T/C", "setting": "[32]", "result": 64.6, "unit": "%"}, {"measurement": "viability, T/C", "setting": "[33]", "result": 12.9, "unit": "%"}, {"measurement": "viability, T/C", "setting": "[34]", "result": 8.07, "unit": "%"}, {"measurement": "viability, T/C", "setting": "[35]", "result": 8.03, "unit": "%"}, {"measurement": "viability, T/C", "setting": "[36]", "result": 10.3, "unit": "%"}]}, {"smiles": "CC(C)n1c(=O)n(C)c2cnc3cc(F)c(-c4ccc(OCCCN5CCCCC5)nc4)cc3c21", "note": "+ Cc1cnc(CNC(=O)c2c(=O)c3ccc(N4CCCN(C)CC4)nc3n3c2sc2ccccc23)cn1", "values": [{"measurement": "IC50", "setting": "second compound 0.0316 µM", "result": "> 10000", "unit": "nM"}, {"measurement": "IC50", "setting": "second compound 0.1 µM", "result": "> 10000", "unit": "nM"}, {"measurement": "IC50", "setting": "second compound 0.316 µM", "result": 3600, "unit": "nM"}, {"measurement": "IC50", "setting": "second compound 1 µM", "result": 144, "unit": "nM"}, {"measurement": "IC50", "setting": "second compound 3.16 µM", "result": "< 31.6", "unit": "nM"}, {"measurement": "IC50", "setting": "second compound 10 µM", "result": "< 31.6", "unit": "nM"}, {"measurement": "viability, T/C", "setting": "[1]", "result": 90.6, "unit": "%"}, {"measurement": "viability, T/C", "setting": "[2]", "result": 79.9, "unit": "%"}, {"measurement": "viability, T/C", "setting": "[3]", "result": 73.5, "unit": "%"}, {"measurement": "viability, T/C", "setting": "[4]", "result": 69.3, "unit": "%"}, {"measurement": "viability, T/C", "setting": "[5]", "result": 75, "unit": "%"}, {"measurement": "viability, T/C", "setting": "[6]", "result": 76.2, "unit": "%"}, {"measurement": "viability, T/C", "setting": "[7]", "result": 70.4, "unit": "%"}, {"measurement": "viability, T/C", "setting": "[8]", "result": 54.4, "unit": "%"}, {"measurement": "viability, T/C", "setting": "[9]", "result": 70.6, "unit": "%"}, {"measurement": "viability, T/C", "setting": "[10]", "result": 73.1, "unit": "%"}, {"measurement": "viability, T/C", "setting": "[11]", "result": 59.4, "unit": "%"}, {"measurement": "viability, T/C", "setting": "[12]", "result": 46.5, "unit": "%"}, {"measurement": "viability, T/C", "setting": "[13]", "result": 67.8, "unit": "%"}, {"measurement": "viability, T/C", "setting": "[14]", "result": 67.6, "unit": "%"}, {"measurement": "viability, T/C", "setting": "[15]", "result": 48.8, "unit": "%"}, {"measurement": "viability, T/C", "setting": "[16]", "result": 70.8, "unit": "%"}, {"measurement": "viability, T/C", "setting": "[17]", "result": 46.5, "unit": "%"}, {"measurement": "viability, T/C", "setting": "[18]", "result": 41.2, "unit": "%"}, {"measurement": "viability, T/C", "setting": "[19]", "result": 49.2, "unit": "%"}, {"measurement": "viability, T/C", "setting": "[20]", "result": 46.3, "unit": "%"}, {"measurement": "viability, T/C", "setting": "[21]", "result": 52.2, "unit": "%"}, {"measurement": "viability, T/C", "setting": "[22]", "result": 54.8, "unit": "%"}, {"measurement": "viability, T/C", "setting": "[23]", "result": 52.3, "unit": "%"}, {"measurement": "viability, T/C", "setting": "[24]", "result": 42.5, "unit": "%"}, {"measurement": "viability, T/C", "setting": "[25]", "result": 43.7, "unit": "%"}, {"measurement": "viability, T/C", "setting": "[26]", "result": 39.8, "unit": "%"}, {"measurement": "viability, T/C", "setting": "[27]", "result": 49.5, "unit": "%"}, {"measurement": "viability, T/C", "setting": "[28]", "result": 39.7, "unit": "%"}, {"measurement": "viability, T/C", "setting": "[29]", "result": 40.6, "unit": "%"}, {"measurement": "viability, T/C", "setting": "[30]", "result": 36.4, "unit": "%"}, {"measurement": "viability, T/C", "setting": "[31]", "result": 31.8, "unit": "%"}, {"measurement": "viability, T/C", "setting": "[32]", "result": 47.5, "unit": "%"}, {"measurement": "viability, T/C", "setting": "[33]", "result": 40, "unit": "%"}, {"measurement": "viability, T/C", "setting": "[34]", "result": 39.7, "unit": "%"}, {"measurement": "viability, T/C", "setting": "[35]", "result": 38.3, "unit": "%"}, {"measurement": "viability, T/C", "setting": "[36]", "result": 35.6, "unit": "%"}]}]}
